Assay [1] has as its target T1, human amylin receptor (calcitonin receptor co-expressed with receptor activity modifying protein, RAMP3) (hAMYR3) (Homo sapiens, UniProt O60896+P30988).
T1 construct: expressed in transfected cells
T1 sequence (P30988 25-474): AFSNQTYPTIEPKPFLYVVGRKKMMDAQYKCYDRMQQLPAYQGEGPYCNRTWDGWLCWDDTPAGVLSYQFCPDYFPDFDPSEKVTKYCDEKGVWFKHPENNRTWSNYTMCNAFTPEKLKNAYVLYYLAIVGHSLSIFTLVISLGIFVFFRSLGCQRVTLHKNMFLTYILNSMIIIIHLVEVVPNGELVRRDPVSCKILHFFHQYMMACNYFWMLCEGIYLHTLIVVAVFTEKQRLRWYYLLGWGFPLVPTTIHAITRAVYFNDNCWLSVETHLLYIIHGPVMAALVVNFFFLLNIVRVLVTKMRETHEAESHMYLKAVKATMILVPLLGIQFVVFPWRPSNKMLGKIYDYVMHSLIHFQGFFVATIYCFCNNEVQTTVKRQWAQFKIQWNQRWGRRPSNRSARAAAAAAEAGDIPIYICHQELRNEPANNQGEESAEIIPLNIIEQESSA
T1 sequence (O60896 24-148 partner): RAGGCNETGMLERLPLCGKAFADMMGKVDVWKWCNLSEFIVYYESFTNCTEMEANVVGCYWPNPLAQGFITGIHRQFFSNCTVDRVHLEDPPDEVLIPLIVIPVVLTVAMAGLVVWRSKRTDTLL
In words: cAMP production in 1321N1 cells with stable recombinant expression of human amylin receptor (hAMYR3). The format is cell-based. The settings on record: for Ratio (selectivity hAMYR vs hCTR, ratio of EC50 values at the two receptors): EC50 hCTR / EC50 hAMYR3; for EC50: cAMP, 1321N1 cells, assay buffer with 0.1% BSA, read-out: EC50 (pM) hAMYR3. In outline: (§1)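 Thawed cells in HBSS/0.1% BSA/25 mM HEPES pH 7.4 with 0.5 mM IBMX were incubated with peptides 30 min at room temperature; cAMP read by HTRF. EC50 from 4-parameter fit of % activation relative to maximal amylin or calcitonin effect.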
(In general: Changes in cAMP serve as a functional read-out for many G protein-coupled receptors.)

The target in assay [2] is T2, human calcitonin receptor (hCTR) (Homo sapiens, UniProt P30988).
T2 construct: expressed in transfected cells
T2 sequence (P30988 25-474): T1 sequence (P30988 25-474)
In words: cAMP production in 1321N1 cells with stable recombinant expression of human calcitonin receptor (hCTR). The format is cell-based. The conditions noted are these: cAMP, 1321N1 cells, assay buffer with 0.1% BSA; read-out: EC50 (pM) hCTR. An outline of the steps:
as §1

What is called EC50 is the concentration needed to bring the measured effect to its halfway point.

Numbered stars: 1 amine (or outer) side, 2 acyl side, 3 side chain; on linkers, the order of the positions; unused ones are H or OH. Bridge positions count the residues as written; N and C are the ends. Square brackets hold non-standard residues; d marks the D form. Side chains are listed from the residue outwards. Peptide text beside a SMILES is read from it. * marks the point of attachment. C18 diacid = O=C(O)CCCCCCCCCCCCCCCCC(=O)*; γGlu = O=C(O)[C@H](CCC(=O)[*:2])N[*:1]; Dab = NCC[C@H](N)C(=O)O; Aib = CC(C)(N)C(=O)O

`CC[C@H](C)[C@H](NC(=O)[C@@H]1CCCN1C(=O)CNC(=O)[C@H](Cc1ccccc1)NC(=O)[C@H](CC(N)=O)NC(=O)C(C)(C)NC(=O)[C@H](CO)NC(=O)[C@H](CO)NC(=O)[C@H](Cc1c[nH]cn1)NC(=O)[C@@H](NC(=O)[C@H](CC(C)C)NC(=O)[C@H](Cc1ccccc1)NC(=O)[C@H](CC(N)=O)NC(=O)[C@H](C)NC(=O)[C@H](CC(C)C)NC(=O)[C@H](CCCNC(=N)N)NC(=O)[C@H](CCC(N)=O)NC(=O)[C@@H](NC(=O)[C@H](C)NC(=O)[C@@H]1CSSC[C@H](NC(=O)[C@@H](N)CCCCNC(=O)CC[C@H](NC(=O)CC[C@H](NC(=O)CCCCCCCCCCCCCCCCC(=O)O)C(=O)O)C(=O)O)C(=O)N[C@@H](CC(N)=O)C(=O)N[C@@H]([C@@H](C)O)C(=O)N[C@@H](C)C(=O)N[C@@H]([C@@H](C)O)C(=O)N1)[C@@H](C)O)C(C)C)C(=O)N[C@@H](CC(C)C)C(=O)N1CCC[C@H]1C(=O)N1CCC[C@H]1C(=O)N[C@H](C(=O)N[C@@H](CCC(=O)O)C(=O)N[C@H](C(=O)NCC(=O)N[C@@H](CO)C(=O)N[C@@H](CC(N)=O)C(=O)N[C@H](C(=O)N[C@@H](Cc1ccc(O)cc1)C(N)=O)[C@@H](C)O)C(C)C)[C@@H](C)O` [Peptide 49, K(γE-γE-C18diacid)[CNTATC]ATQRLANFLVHSS(Aib)NFGPILPPTEVGSNTY-amide] (H-K([γGlu-γGlu-C18 diacid])CNTATCATQRLANFLVHSS[Aib]NFGPILPPTEVGSNTY-NH2; disulfide 2-7): in assay [1], the “Ratio (selectivity hAMYR vs hCTR, ratio of EC50 values at the two receptors)” value was 12 and the EC50 stood at 334 pM. Further, in assay [2], the EC50 was found to be 4140 pM.

In the case of `CC[C@H](C)[C@H](NC(=O)[C@@H]1CCCN1C(=O)CNC(=O)[C@H](Cc1ccccc1)NC(=O)[C@H](CC(N)=O)NC(=O)C(C)(C)NC(=O)[C@H](CO)NC(=O)[C@H](CO)NC(=O)[C@H](Cc1c[nH]cn1)NC(=O)[C@@H](NC(=O)[C@H](CC(C)C)NC(=O)[C@H](Cc1ccccc1)NC(=O)[C@H](CC(N)=O)NC(=O)[C@H](C)NC(=O)[C@H](CC(C)C)NC(=O)[C@H](CCCNC(=N)N)NC(=O)[C@H](CCC(N)=O)NC(=O)[C@@H](NC(=O)[C@H](C)NC(=O)[C@@H]1CSSC[C@H](NC(=O)[C@@H](N)CCCCNC(=O)CC[C@H](NC(=O)CCCCCCCCCCCCCCCCC(=O)O)C(=O)O)C(=O)N[C@@H](CC(N)=O)C(=O)N[C@@H]([C@@H](C)O)C(=O)N[C@@H](C)C(=O)N[C@@H]([C@@H](C)O)C(=O)N1)[C@@H](C)O)C(C)C)C(=O)N[C@H](CC(C)C)C(=O)N1CCC[C@H]1C(=O)N1CCC[C@H]1C(=O)N[C@H](C(=O)N[C@@H](CC(N)=O)C(=O)N[C@H](C(=O)NCC(=O)N[C@@H](CO)C(=O)N[C@@H](CC(N)=O)C(=O)N[C@H](C(=O)N[C@@H](Cc1ccc(O)cc1)C(N)=O)[C@@H](C)O)C(C)C)[C@@H](C)O` [Peptide 59, K(γE-C18diacid)[CNTATC]ATQRLANFLVHSS(Aib)NFGPI(dL)PPTNVGSNTY-amide] (H-K([γGlu-C18 diacid])CNTATCATQRLANFLVHSS[Aib]NFGPI[dL]PPTNVGSNTY-NH2; disulfide 2-7; N-terminus assumed), the “Ratio (selectivity hAMYR vs hCTR, ratio of EC50 values at the two receptors)” value in assay [1] is given as 5. Besides, the EC50 in assay [1] stood at 157 pM; in assay [2] it was 809 pM.

As for `CC[C@H](C)[C@H](NC(=O)[C@@H]1CCCN1C(=O)CNC(=O)[C@H](Cc1ccccc1)NC(=O)[C@H](CC(N)=O)NC(=O)C(C)(C)NC(=O)[C@H](CO)NC(=O)[C@H](CO)NC(=O)[C@H](Cc1c[nH]cn1)NC(=O)[C@@H](NC(=O)[C@H](CC(C)C)NC(=O)[C@H](Cc1ccccc1)NC(=O)[C@H](CC(N)=O)NC(=O)[C@H](C)NC(=O)[C@H](CC(C)C)NC(=O)[C@H](CCCNC(=N)N)NC(=O)[C@H](CCC(N)=O)NC(=O)[C@@H](NC(=O)[C@H](C)NC(=O)[C@@H]1CSSC[C@H](NC(=O)[C@H](CCCCN)NC(=O)[C@@H](N)CCCCNC(=O)CC[C@H](NC(=O)CCCCCCCCCCCCCCCCC(=O)O)C(=O)O)C(=O)N[C@@H](CC(N)=O)C(=O)N[C@@H]([C@@H](C)O)C(=O)N[C@@H](C)C(=O)N[C@@H]([C@@H](C)O)C(=O)N1)[C@@H](C)O)C(C)C)C(=O)N[C@@H](CC(C)C)C(=O)N1CCC[C@H]1C(=O)N1CCC[C@H]1C(=O)N[C@H](C(=O)N[C@@H](CC(N)=O)C(=O)N[C@H](C(=O)NCC(=O)N[C@@H](CO)C(=O)N[C@@H](CCC(=O)O)C(=O)N[C@H](C(=O)N[C@@H](Cc1ccc(O)cc1)C(N)=O)[C@@H](C)O)C(C)C)[C@@H](C)O` [Peptide 42, K(γE-C18diacid)K[CNTATC]ATQRLANFLVHSS(Aib)NFGPILPPTNVGSETY-amide] (H-K([γGlu-C18 diacid])KCNTATCATQRLANFLVHSS[Aib]NFGPILPPTNVGSETY-NH2; disulfide 3-8), in assay [1], the “Ratio (selectivity hAMYR vs hCTR, ratio of EC50 values at the two receptors)” value is listed as 6 and the half-maximal effective concentration (EC50) was 470 pM. Besides, the EC50 in assay [2] was 2950 pM.

With `CC[C@H](C)[C@H](NC(=O)[C@H](C)NC(=O)[C@@H]1CCCN1C(=O)[C@H](Cc1ccccc1)NC(=O)[C@H](CC(N)=O)NC(=O)C(C)(C)NC(=O)[C@H](CO)NC(=O)[C@H](CO)NC(=O)[C@H](Cc1c[nH]cn1)NC(=O)[C@@H](NC(=O)[C@H](CC(C)C)NC(=O)[C@H](Cc1ccccc1)NC(=O)[C@H](CC(N)=O)NC(=O)[C@H](C)NC(=O)[C@H](CC(C)C)NC(=O)[C@H](CCCNC(=N)N)NC(=O)[C@H](CCC(N)=O)NC(=O)[C@@H](NC(=O)[C@H](C)NC(=O)[C@@H]1CSSC[C@H](NC(=O)[C@@H](N)CCCCNC(=O)CC[C@H](NC(=O)CC[C@H](NC(=O)CCCCCCCCCCCCCCCCC(=O)O)C(=O)O)C(=O)O)C(=O)N[C@@H](CC(N)=O)C(=O)N[C@@H]([C@@H](C)O)C(=O)N[C@@H](C)C(=O)N[C@@H]([C@@H](C)O)C(=O)N1)[C@@H](C)O)C(C)C)C(=O)N[C@@H](CC(C)C)C(=O)N[C@@H](CO)C(=O)N1CCC[C@H]1C(=O)N[C@H](C(=O)N[C@@H](CCN)C(=O)N[C@H](C(=O)NCC(=O)N[C@@H](CO)C(=O)N[C@@H](CC(N)=O)C(=O)N[C@H](C(=O)N[C@@H](Cc1ccc(O)cc1)C(N)=O)[C@@H](C)O)C(C)C)[C@@H](C)O` [Peptide 122, K(γE-γE-C18diacid)[CNTATC]ATQRLANFLVHSS(Aib)NFPAILSPT(Dab)VGSNTY-amide] (H-K([γGlu-γGlu-C18 diacid])CNTATCATQRLANFLVHSS[Aib]NFPAILSPT[Dab]VGSNTY-NH2; disulfide 2-7), in assay [1], the “Ratio (selectivity hAMYR vs hCTR, ratio of EC50 values at the two receptors)” value is listed as 9 and the EC50 turned out to be 655 pM. The 50% effective concentration (EC50) in assay [2] was determined as 6180 pM.

Consider `CC(C)C[C@H](NC(=O)[C@H](CCCNC(=N)N)NC(=O)[C@H](CCC(N)=O)NC(=O)[C@@H](NC(=O)[C@H](C)NC(=O)[C@@H]1CSSC[C@H](NC(=O)[C@H](CCCCN)NC(=O)[C@@H](N)CCCCNC(=O)CC[C@H](NC(=O)CCCCCCCCCCCCCCCCC(=O)O)C(=O)O)C(=O)N[C@@H](CC(N)=O)C(=O)N[C@@H]([C@@H](C)O)C(=O)N[C@@H](C)C(=O)N[C@@H]([C@@H](C)O)C(=O)N1)[C@@H](C)O)C(=O)N[C@@H](C)C(=O)N[C@@H](CC(N)=O)C(=O)N[C@@H](Cc1ccccc1)C(=O)N[C@@H](CC(C)C)C(=O)NC(C)(C)C(=O)N[C@@H](Cc1c[nH]cn1)C(=O)N[C@@H](CO)C(=O)N[C@@H](CO)C(=O)N[C@@H](CC(N)=O)C(=O)N[C@@H](CC(N)=O)C(=O)N[C@@H](Cc1ccccc1)C(=O)NCC(=O)N1CCC[C@H]1C(=O)NC(C)(C)C(=O)N[C@@H](CC(C)C)C(=O)N1CCC[C@H]1C(=O)N1CCC[C@H]1C(=O)N[C@H](C(=O)N[C@@H](CC(N)=O)C(=O)N[C@H](C(=O)NCC(=O)N[C@@H](CO)C(=O)N[C@@H](CC(N)=O)C(=O)N[C@H](C(=O)N[C@@H](Cc1ccc(O)cc1)C(N)=O)[C@@H](C)O)C(C)C)[C@@H](C)O` [Peptide 94, K(γE-C18diacid)K[CNTATC]ATQRLANFL(Aib)HSSNNFGP(Aib)LPPTNVGSNTY-amide] (H-K([γGlu-C18 diacid])KCNTATCATQRLANFL[Aib]HSSNNFGP[Aib]LPPTNVGSNTY-NH2; disulfide 3-8; N-terminus assumed), for which, in assay [1], the “Ratio (selectivity hAMYR vs hCTR, ratio of EC50 values at the two receptors)” value came to 6 and the EC50 worked out at 322 pM. Moreover, the EC50 in assay [2] amounted to 1900 pM.
